Columns and labels:
[1] = tested on: HPV11; assay: HPV genome replicon assay (NanoLuc) in C-33 A cells, HPV11; format: cell-based, Human Papilloma Virus; conditions: reference compound; value within the prescribed range
Text: C-33 A, […] were obtained from ATCC and maintained in standard growth medium of MEM with Earl's salts supplemented with 10% FBS (Hyclone, Inc. Logan UT), L-glutamine, penicillin, and gentamycin.
HPV genome replicon assay was developed and expresses the essential E1 and E2 proteins from the native promoter. The E2 origin binding protein interacts with the virus origin of replication and recruits the E1 replicative helicase which unwinds the DNA and helps to recruit the cellular DNA replication machinery (including DNA polymerases, type I and type II topoisomerases, DNA ligase, single-stranded DNA binding proteins, proliferating cell nuclear antigen). The replication complex then drives the amplification of the replicon which can be assessed by the expression of a destabilized NanoLuc reporter gene carried on the replicon. In the HPV11 assay, the replicon (pMP619) is transfected into C-33 A cells grown as monolayers in 384-well plates. At 48 h post transfection, the enzymatic activity of the destabilized NanoLuc reporter is assessed with NanoGlo reagent. […] Analysis of HPV genome replication in specific types of HPV, such as HPV6, HPV11, or HPV31 is performed with plasmid systems that utilize each HPV type.

[2] = tested on: HCMV strain AD169-GFP; assay: HCMV-GFP-based antiviral assay in HFF; format: cell-based, human cytomegalovirus
[3] = tested on: ganciclovir (GCV)-resistant HCMV strain ADP169-GFP314; assay: HCMV-GFP-based antiviral assay, ganciclovir-resistant strain; format: cell-based, human cytomegalovirus
Description: A series of laboratory variants of AD169-GFP virus that are resistant to GCV was generated. HFF were infected in 12-well plates at a multiplicity of infection (MOI) of 0.002 and incubated with […] Ganciclovir. GFP expression in infected cells was monitored microscopically, and the supernatants from the positive wells were transferred to fresh cells weekly. Thereby Ganciclovir concentrations were increased stepwise (a […] increase at each step) up to the point where total virus replication became critical and resistant virus was grown in individual wells. Using supernatants from these wells, two rounds of plaque purifications were performed in HFF. Finally, Ganciclovir-resistant viral clones (AD169-GFP314) which were able to replicate in the presence of […] GCV were isolated.
HFF were cultured to 90% confluency in 12-well plates and used for infection with AD169-GFP HCMV-virus at a tissue culture infective dose of 0.5 (GFP-TCID50 0.5, referring to an MOI of 0.002 as determined by plaque assay titration). Virus inoculation was performed for 90 min at 37° C. with occasional shaking before virus was removed and the cell layers were rinsed with phosphate-buffered saline (PBS). Then infected cell layers were incubated with 2.5 ml of MEM containing 5% (vol/vol) fetal calf serum with or without a dilution of one of the respective test compounds. Infected cells were incubated at 37° C. under a 5% CO2 atmosphere for 7 days. For lysis, […] of lysis buffer (25 mM Tris [pH 7.8], 2 mM dithiothreitol [DTT], 2 mM trans-1,2-diaminocyclohexane-N,N,N9,N9-tetraacetic acid, 1% Triton X-100, 10% glycerol) was added to each well and incubated for 10 min at 37° C., followed by a 30-min incubation at room temperature on a shaker. Lysates were centrifuged for 5 min at 15,000 rpm in an Eppendorf centrifuge to remove cell debris. […] The […] of compounds against virus replication was determined by EC50 (50% effective concentration).

Structure (SMILES) | EC50 [1] | antiviral effectiveness against non-resistant viruses [2] | antiviral effectiveness against viruses resistant to nucleobase analogue drugs [3]
Nc1nc2c(ncn2CCOCP(=O)(O)O)c(=O)[nH]1 [PMEG] | 2 to 9.2 µM |  | 
C=C(F)C(=O)Nc1ccc2c(-c3ccccc3CNc3nc(NC4CCC(C)(C)NC4)nc4c(C(C)C)cnn34)nccc2c1 (stereo not shown) [Compound 175] |  | highly effective | highly effective
C=C(F)C(=O)Nc1ccc2c(-c3ccccc3CNc3nc(N[C@@H]4CCC(C)(C)NC4)nc4c(C(C)C)cnn34)nccc2c1 [Compound 174] |  | highly effective | highly effective
C=C(F)C(=O)Nc1ccc2c(-c3ccccc3CNc3nc(OC4CCC(C)(C)NC4)nc4c(C(C)C)cnn34)nccc2c1 (stereo not shown) [Compound 177] |  | highly effective | highly effective
